pEC50, pIC50: −log10 of the molar value. Like-named read-outs stand apart in the source and are kept apart here. One block for each compound: values may come before it.
Key:
[1] = target: T1, human LXRα (Homo sapiens, UniProt Q13133); test: cell-based
T1 construct: expressed in transfected cells; host or cells: Saccharomyces cerevisiae Y187
T1 sequence (Q13133 205-447): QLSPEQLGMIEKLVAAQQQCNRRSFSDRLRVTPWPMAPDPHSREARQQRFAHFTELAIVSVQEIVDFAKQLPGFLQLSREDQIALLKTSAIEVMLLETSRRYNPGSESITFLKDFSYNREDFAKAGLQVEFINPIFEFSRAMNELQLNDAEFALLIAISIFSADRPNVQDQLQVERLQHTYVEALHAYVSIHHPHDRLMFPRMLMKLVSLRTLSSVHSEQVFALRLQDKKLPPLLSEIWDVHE

[2] = target: T2, human LXRβ (Homo sapiens, UniProt P55055); test: cell-based
T2 sequence (P55055 219-460): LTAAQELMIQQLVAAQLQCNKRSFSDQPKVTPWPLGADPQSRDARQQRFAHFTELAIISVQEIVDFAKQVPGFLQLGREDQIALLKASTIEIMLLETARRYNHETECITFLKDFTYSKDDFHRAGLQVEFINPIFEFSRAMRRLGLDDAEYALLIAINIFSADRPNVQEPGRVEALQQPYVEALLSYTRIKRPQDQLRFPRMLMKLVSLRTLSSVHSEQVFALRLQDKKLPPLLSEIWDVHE

[3] = target: T2, human LXRβ; test: Yeast two-hybrid assay (LXRβ LBD with coactivator TIF2, β-galactosidase readout)
[4] = tested on: atherosclerotic mice; set-up: method as in Joseph et al. 2002; conditions: ref Joseph et al. 2002; cited from earlier work
[5] = target: T3, human LXRα (Homo sapiens, UniProt Q13133); type: binding
T3 construct: the full-length human LXRα gene was amplified by polymerase chain reaction (PCR); made in house; host or cells: E. coli BL21
T3 sequence (Q13133 1-447): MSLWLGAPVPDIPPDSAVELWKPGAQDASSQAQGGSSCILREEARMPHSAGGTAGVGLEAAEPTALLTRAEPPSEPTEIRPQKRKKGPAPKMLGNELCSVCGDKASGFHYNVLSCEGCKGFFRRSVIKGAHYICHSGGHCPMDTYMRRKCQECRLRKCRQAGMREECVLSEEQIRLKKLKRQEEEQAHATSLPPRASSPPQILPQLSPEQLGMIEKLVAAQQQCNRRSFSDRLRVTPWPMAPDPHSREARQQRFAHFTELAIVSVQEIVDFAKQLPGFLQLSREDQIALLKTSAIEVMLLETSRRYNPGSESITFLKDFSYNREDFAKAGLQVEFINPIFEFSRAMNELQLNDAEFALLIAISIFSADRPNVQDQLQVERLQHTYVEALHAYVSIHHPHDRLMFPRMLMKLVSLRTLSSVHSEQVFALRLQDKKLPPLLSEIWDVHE

[6] = tested on: ABCA1; test: qRT-PCR of LXR target gene ABCA1 in RAW264.7 macrophages; type: cell-based; conditions: TO901317 at 5–100 nM with TPHP 10,000 nM
Method: (§1) RAW264.7 cells were obtained from the National Infrastructure of Cell Line Resource of Beijing, China, and the cells used for the experiment were cultured for at least three passages. Dulbecco’s Modified Eagle’s Medium (DMEM)-F12 medium containing 10% fetal bovine serum (FBS) was employed to culture the RAW264.7 cells. RAW264.7 cells were incubated at 37°C with 5% carbon dioxide. The RAW264.7 cells were plated at 2.5×10^5 cells/well (6-well plates), 6.0×10^4 cells/well (24-well plates), and 10^4 cells/well (96-well plates). The RAW264.7 cells were plated and grown overnight; then the medium was removed and fresh DMEM-F12 contained with 0.1% DMSO (control; n=3 ) or TPHP at the concentrations of 1–20,000 nM ( n=3 per group) was added. […] Then the cells were used for the quantitative reverse transcription (qRT)-PCR, cellular cholesterol efflux assay, and foam cell formation experiment.
(§2) Total RNA was isolated from RAW264.7 cells and mouse peritoneal macrophages using TRIzol reagent according to the manufacturer’s instructions. Then a Nanovue Plus™ spectrophotometer (GE Healthcare Life Science) was used to analyze the concentration, quality, and purity of the RNA. Total RNA ( 1μg ) was mixed with oligo deoxythymine (dT) ( 1μL ) at 70°C for 5 min and then combined with a mixture containing Moloney murine leukemia virus (MMLV) reverse transcriptase ( 1μL ), deoxy-ribonucleoside triphosphate (dNTP) ( 1.25μL ), Recombinant RNasin® Ribonuclease Inhibitor (Promega) ( 0.65μL ), and MMLV buffer ( 5μL ) at 42°C for 60 min. The SYBR® Green PCR Kit (TOYOBO) was used for RT-PCR analysis. Real-time fluorescence detection was performed using the StepOnePlus™ sequence detection system (Applied Biosystems). […] The following primers were designed and purchased from Sangon Biotech:
(§3) • actin: 5′-[…]-3′ and 5′-[…]-3′ ATP-binding cassette transporter A1 (ABCA1): 5′-[…]-3′ and 5′-[…]-3′ • ATP-binding cassette transporter G1 (ABCG1): 5′-[…]-3′ and 5′-[…]-3′.

[7] = tested on: ABCG1; test: qRT-PCR of LXR target gene ABCG1 in RAW264.7 macrophages; type: cell-based; conditions: TO901317 at 5–100 nM with TPHP 10,000 nM
Method: as §1, §2, §3

[8] = dust standard reference material SRM2585
[9] = range over indoor dust samples (Table S4)

SMILES: CCCCC(CC)COP(=O)(Oc1ccccc1)Oc1ccccc1 (centres unmarked) [EHDPP, 2-ethylhexyl diphenyl phosphate]
pIC50 [1]: 5.24
Contribution to the LXRα-antagonist activity of SRM2585 [1, 8]: 3.01%
Share of the LXRα-antagonist activity of indoor dust explained by the chemical [1, 9]: 0.01–25.02%
pIC50 [2]: 5.66
Contribution to the LXRβ-antagonist activity of SRM2585 [3, 8]: 1.55%
Share of the LXRβ-antagonist activity of indoor dust explained by the chemical [3, 9]: 0.01–22.92%

SMILES: O=C(O)Cc1cccc(OCCCN(Cc2cccc(C(F)(F)F)c2Cl)CC(c2ccccc2)c2ccccc2)c1 [GW3965]
Atherosclerotic plaques [4]: promoted regression of atherosclerotic plaques
Foam cell formation [4]: inhibited foam cell formation

SMILES: O=[N+]([O-])c1ccc(O)cc1 [PNP, p-nitrophenol]
pEC50 ([1]; agonist mode, β-galactosidase activity, n=3): 4.85
pEC50 [3]: 4.82

SMILES: CCOC(=O)c1ccc(CN(Cc2ccc(-c3cccc(S(C)(=O)=O)c3)cc2)S(=O)(=O)c2c(C)cc(C)cc2C)o1 [SR9238, reference compound]
pIC50 ([1]; read-out: IC50 for LXRα (antagonist activity)): 6.08
pIC50 [2]: 6.35

Average percentage pulled down of the spiked concentration ([5]; His-TF-LXRα group): 89%
Average percentage pulled down of the spiked concentration ([5]; control group (His-TF protein without LXRα)): 10%
Recovery in pull-down by recombinant LXRα ([5]; spiked at 0.25 μg/L): 100%±3%
Recovery in pull-down by recombinant LXRα ([5]; spiked at 2.5 μg/L): 85%±5%
Recovery in pull-down by recombinant LXRα ([5]; spiked at 25 μg/L): 80%±0.7%
Recovery in pull-down by recombinant LXRα ([5]; spiked at 250 μg/L): 92%±4%
SMILES: O=S(=O)(c1ccccc1)N(CC(F)(F)F)c1ccc(C(O)(C(F)(F)F)C(F)(F)F)cc1 [TO901317]
ABCA1 gene expression in cells co-exposed to TPHP, versus TPHP alone [6]: dose-dependently higher
ABCG1 gene expression in cells co-exposed to TPHP, versus TPHP alone [7]: dose-dependently higher

From PMC6927504, “Screening of House Dust from Chinese Homes for Chemicals with Liver X Receptors Binding Activities and Characterization of Atherosclerotic Activity Using an in Vitro Macrophage Cell Line and ApoE^−/− Mice” (Environmental Health Perspectives, 2019)
